By EC50 is commonly meant the concentration needed to bring the measured effect to its halfway point.

Data set [1] has as its system Asexual parasites of P. falciparum strain 3D7. Put plainly: In vitro drug activity on asexual parasites (SYBR Green assay). In kind it is cell-based, Plasmodium falciparum. The essentials: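 3D7 parasites at 0.5% parasitemia and 2% hematocrit were exposed to drugs (DMSO ≤0.5%) for 72 h under standard culture conditions, in duplicate. After freeze-thaw lysis, SYBR Green I lysis buffer was added for 30 min at room temperature, and fluorescence was read at 490/520 nm.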

Data set [2] deals with Stage III-V gametocytes (blood stage P. falciparum parasites). Put plainly: In vitro drug activity on gametocytes (AlamarBlue viability assay). In kind it is cell-based, Plasmodium falciparum. The settings on record: read-out: Gametocyte EC50. The essentials: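 P. falciparum 3D7 stage III–V gametocytes (also HB3, Dd2), enriched by 50 mM N-acetylglucosamine and Percoll gradient, seeded at 20,000/well with compound for 72 h at 37° C, 5% CO2. AlamarBlue then added for 24 h; viability read as fluorescence (Ex 525, Em 598 nm).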
In general terms: Alamar Blue is a resazurin reagent that responds to reducing activity.

The target in a further data set is mTOR (Homo sapiens, UniProt P42345). Put plainly: mTOR activity (no method described). In kind it is biochemical.
The nature of another data set: Solubility at pH 7.4. In kind it is physicochemical.
The next data set can be described thus: PAMPA permeability. In kind it is in vitro ADME. (In general: PAMPA measures passive passage across an artificial lipid membrane.)
A short description of data set [3]: Microsomal stability (rat). The settings on record: rat microsomes. In kind it is in vitro ADME.
The mark [4] stands for this setting: P. falciparum 3D7 asexual parasites, 72 h, SYBR Green.
Setting [5] is: P. falciparum stage III-V gametocytes, 72 h incubation, AlamarBlue.

Where two headings read alike, the source gives them in different places. Bounds are passed on as bounds.

On to `Cc1cc(C(=O)NC2CC2)ccc1-n1c(=O)ccc2cnc3ccc(-c4ccc(Cl)cc4)cc3c21` [Compound 88], for which the EC50 in data set [1] worked out at 0.0567 µM; in data set [2], 0.141 µM. On mTOR, the mTOR is 1841 nM. In addition, the “Sol @ pH 7.4” value in “Solubility at pH 7.4” came to 0.51 ug/mL. Besides, in the data set “PAMPA permeability”, the PAMPA Permeability was found to be 117 ×10⁻⁶ cm/s.
As for `O=Cc1ccc(-c2ccc3ncc4ccc(=O)n(-c5ccc(C(=O)N6CCOCC6)cc5)c4c3c2)cc1` [Compound 169], the EC50 in data set [1] was determined as 0.301 µM; in data set [2] it was 0.63 µM. For the same molecule, the mTOR on mTOR turned out to be 631.5 nM. In addition, the “Sol @ pH 7.4” value in “Solubility at pH 7.4” stood at 2.8 ug/mL. In “PAMPA permeability”, this molecule returned a PAMPA Permeability of 204 ×10⁻⁶ cm/s.
With `CN(C)Cc1cccc(-c2ccc3ncc4ccc(=O)n(-c5ccc(C(=O)N6CCOCC6)cc5)c4c3c2)c1` [Compound 173], the EC50 in data set [2] worked out at 2.53 µM. The same molecule registered a mTOR at mTOR of 100000 nM. Moreover, in “Solubility at pH 7.4”, the “Sol @ pH 7.4” value was above 77.00 ug/mL. The molecule further registered a PAMPA Permeability in “PAMPA permeability” of 366 ×10⁻⁶ cm/s.
With `CC1CC1NC(=O)c1ccc(-n2c(=O)ccc3cnc4ccc(-c5ccc(N)nc5)cc4c32)cc1` (stereo not drawn) [Compound 338], the EC50 in data set [2] was determined as 0.0659 µM. Moreover, the mTOR at mTOR is 150.5 nM. In the data set “Solubility at pH 7.4”, the “Sol @ pH 7.4” value is reported as 0.32 ug/mL. Moreover, the PAMPA Permeability in the data set “PAMPA permeability” came out at 141 ×10⁻⁶ cm/s.
Regarding `CN(C)Cc1ccc(-c2ccc3ncc4ccc(=O)n(-c5ccc6c(c5)CCC(=O)N6)c4c3c2)cc1` [Compound 357], the EC50 was 0.863 µM in data set [1] (setting [4]) and 2.2 µM in data set [2] (setting [5]). Moreover, in data set [3], the “Microsomal Stability (rat) T1/2” value was above 30.00 min. In the data set “Solubility at pH 7.4”, the “Sol @ pH 7.4 (ug/mL)” value was above 70.00 ug/mL. For the same molecule, in “PAMPA permeability”, the “PAMPA Permeability (×10^6 cm/s)” value was 40.53 ×10^6 cm/s.
On the same counts, the results for `CN1Cc2cc(-n3c(=O)ccc4cnc5ccc(-c6ccc(F)cc6)cc5c43)ccc2C1=O` [Compound 360] are 0.17 µM, 0.736 µM, 19.2 min, 0.73 ug/mL and 635.05 ×10^6 cm/s.
For the molecule `CCN1Cc2cc(-n3c(=O)ccc4cnc5ccc(-c6ccc(F)cc6)cc5c43)ccc2C1=O` [Compound 361], the values for the EC50 in data set [1] (setting [4]) and in data set [2] (setting [5]) were 1.57 µM and 6.44 µM, respectively. Further, the “Microsomal Stability (rat) T1/2” value in data set [3] was above 30.00 min. In addition, the “Sol @ pH 7.4 (ug/mL)” value in the data set “Solubility at pH 7.4” is listed as below 0.10 ug/mL. In addition, in “PAMPA permeability”, the “PAMPA Permeability (×10^6 cm/s)” value is 199.84 ×10^6 cm/s.
Consider `O=C1NCc2cc(-n3c(=O)ccc4cnc5ccc(-c6ccc(F)cc6)cc5c43)ccc21` [Compound 362], for which the EC50 in data set [1] (setting [4]) turned out to be 0.00886 µM; in data set [2] (setting [5]), 0.0817 µM. Also, the “Microsomal Stability (rat) T1/2” value in data set [3] stood at 7.4 min. For the same molecule, the “Sol @ pH 7.4 (ug/mL)” value in “Solubility at pH 7.4” is 0.6 ug/mL. Moreover, the “PAMPA Permeability (×10^6 cm/s)” value in “PAMPA permeability” is given as 98.56 ×10^6 cm/s.
Turning to `NC1(c2ccc(-c3ccc4ncc5ccc(=O)n(-c6ccc7c(c6)CNC7=O)c5c4c3)cc2)CCC1` [Compound 368], the values for the EC50 in data set [1] (setting [4]) and in data set [2] (setting [5]) were 1.28 µM and 2.19 µM, respectively. The “Microsomal Stability (rat) T1/2” value in data set [3] is recorded as above 30 min. Moreover, in the data set “Solubility at pH 7.4”, the “Sol @ pH 7.4 (ug/mL)” value turned out to be 6.5 ug/mL. In addition, in “PAMPA permeability”, the “PAMPA Permeability (×10^6 cm/s)” value was 2.9 ×10^6 cm/s.
Turning to `O=C1NCc2cc(-n3c(=O)ccc4cnc5ccc(-c6ccc(CN7CCOCC7)cc6)cc5c43)ccc21` [Compound 369], the EC50 in data set [1] (setting [4]) came to 1.23 µM; in data set [2] (setting [5]), 2.94 µM. Also, the “Microsomal Stability (rat) T1/2” value in data set [3] came out at 26 min. Further, the “Sol @ pH 7.4 (ug/mL)” value in the data set “Solubility at pH 7.4” is listed as 15.7 ug/mL. In addition, the “PAMPA Permeability (×10^6 cm/s)” value in the data set “PAMPA permeability” is 55 ×10^6 cm/s.
Consider `NCc1cccc(-c2ccc3ncc4ccc(=O)n(-c5ccc6c(c5)CNC6=O)c4c3c2)c1` [Compound 370], for which the half-maximal effective concentration (EC50) in data set [1] (setting [4]) worked out at 0.296 µM; in data set [2] (setting [5]) it was 4.12 µM. In data set [3], the “Microsomal Stability (rat) T1/2” value is above 30 min. In addition, the “Sol @ pH 7.4 (ug/mL)” value in the data set “Solubility at pH 7.4” came out at 27.3 ug/mL. Also, the “PAMPA Permeability (×10^6 cm/s)” value in the data set “PAMPA permeability” is on record as <1 ×10^6 cm/s.
For `O=C1NCc2cc(-n3c(=O)ccc4cnc5ccc(-c6ccc(CN7CCCC7)cc6)cc5c43)ccc21` [Compound 371], the EC50 in data set [1] (setting [4]) stood at 0.472 µM; in data set [2] (setting [5]), 2.47 µM. Besides, in data set [3], the “Microsomal Stability (rat) T1/2” value is recorded as above 30 min. In addition, the “Sol @ pH 7.4 (ug/mL)” value in “Solubility at pH 7.4” was determined as 45.3 ug/mL. The “PAMPA Permeability (×10^6 cm/s)” value in “PAMPA permeability” was 1.2 ×10^6 cm/s.
The corresponding values for `O=C1NCc2cc(-n3c(=O)ccc4cnc5ccc(-c6ccc(CCN7CCOCC7)cc6)cc5c43)ccc21` [Compound 372] are 0.54 µM, 1.05 µM, above 30 min, below 1 ug/mL and <1 ×10^6 cm/s.
Consider `NC1(c2ccc(-c3ccc4ncc5ccc(=O)n(-c6ccc7c(c6)CNC7=O)c5c4c3)cc2)CC1` [Compound 373], for which the EC50 in data set [1] (setting [4]) came to 0.35 µM; in data set [2] (setting [5]), 0.0457 µM. For the same molecule, the “Microsomal Stability (rat) T1/2” value in data set [3] is listed as above 30 min. Besides, the “Sol @ pH 7.4 (ug/mL)” value in the data set “Solubility at pH 7.4” was 3.3 ug/mL. Further, the “PAMPA Permeability (×10^6 cm/s)” value in the data set “PAMPA permeability” is listed as <6.3 ×10^6 cm/s.
Consider `CN(C)Cc1ccc(-c2ccc3ncc4ccc(=O)n(-c5ccc6c(c5)NC(=O)C6)c4c3c2)cc1` [Compound 374], for which the half-maximal effective concentration (EC50) in data set [1] (setting [4]) turned out to be 4.18 µM; in data set [2] (setting [5]) it was 12.9 µM. Besides, the “Microsomal Stability (rat) T1/2” value in data set [3] is listed as above 30 min. The “Sol @ pH 7.4 (ug/mL)” value in the data set “Solubility at pH 7.4” turned out to be 52.5 ug/mL. Also, the “PAMPA Permeability (×10^6 cm/s)” value in the data set “PAMPA permeability” was <1.6 ×10^6 cm/s.
`CN(C)CCc1ccc(-c2ccc3ncc4ccc(=O)n(-c5ccc6c(c5)CNC6=O)c4c3c2)cc1` [Compound 375]: the EC50 came to 0.389 µM in data set [1] (setting [4]) and 0.715 µM in data set [2] (setting [5]). Also, the “Microsomal Stability (rat) T1/2” value in data set [3] is above 30 min. Moreover, the “Sol @ pH 7.4 (ug/mL)” value in “Solubility at pH 7.4” was 13.1 ug/mL. For the same molecule, the “PAMPA Permeability (×10^6 cm/s)” value in the data set “PAMPA permeability” is <1.1 ×10^6 cm/s.
For the molecule `Nc1ccc(-c2ccc3ncc4ccc(=O)n(-c5ccc6c(c5)C(=O)NC6)c4c3c2)cn1` [Compound 387], the EC50 in data set [1] (setting [4]) is 0.316 µM; in data set [2] (setting [5]) it was 1.84 µM. For the same molecule, the “Microsomal Stability (rat) T1/2” value in data set [3] was above 30.0 min. Also, the “Sol @ pH 7.4 (ug/mL)” value in “Solubility at pH 7.4” was 1.4 ug/mL. In the data set “PAMPA permeability”, the “PAMPA Permeability (×10^6 cm/s)” value is given as <4.1 ×10^6 cm/s.
As for `Nc1ccc(-c2ccc3ncc4ccc(=O)n(-c5ccc6c(c5)CN(C5CC5)C6=O)c4c3c2)cn1` [Compound 390], the EC50 in data set [1] (setting [4]) turned out to be 0.0752 µM; in data set [2] (setting [5]), 0.116 µM. Moreover, in data set [3], the “Microsomal Stability (rat) T1/2” value is recorded as above 30.0 min. Moreover, in the data set “Solubility at pH 7.4”, the “Sol @ pH 7.4 (ug/mL)” value turned out to be 4.2 ug/mL. Besides, in “PAMPA permeability”, the “PAMPA Permeability (×10^6 cm/s)” value is listed as 25 ×10^6 cm/s.
For the molecule `CN1C(=O)CCc2cc(-n3c(=O)ccc4cnc5ccc(-c6ccc(N)nc6)cc5c43)ccc21` [Compound 392], the concentration for a half-maximal effect (EC50) in data set [1] (setting [4]) was found to be 0.022 µM; in data set [2] (setting [5]), 0.0461 µM. The “Microsomal Stability (rat) T1/2” value in data set [3] is reported as above 30.00 min. In addition, the “Sol @ pH 7.4 (ug/mL)” value in the data set “Solubility at pH 7.4” turned out to be 33.81 ug/mL. Besides, the “PAMPA Permeability (×10^6 cm/s)” value in the data set “PAMPA permeability” was 133.39 ×10^6 cm/s.
Turning to `Nc1ccc(-c2ccc3ncc4ccc(=O)n(-c5ccc6c(c5)NC(=O)C6)c4c3c2)cn1` [Compound 394], the EC50 in data set [1] (setting [4]) is 0.13 µM; in data set [2] (setting [5]), 0.439 µM. For the same molecule, the “Microsomal Stability (rat) T1/2” value in data set [3] was above 30 min. Moreover, in “Solubility at pH 7.4”, the “Sol @ pH 7.4 (ug/mL)” value is below 1 ug/mL. The “PAMPA Permeability (×10^6 cm/s)” value in the data set “PAMPA permeability” is given as <1 ×10^6 cm/s.
As for `Cn1c(=O)n(-c2ccc(N3CCN(CCO)CC3)c(C#N)c2)c2c3cc(-c4ccc(Cl)cc4)ccc3ncc21` [Compound 417], the EC50 in data set [2] amounted to 0.0365 µM. In addition, the mTOR at mTOR turned out to be 319 nM. In addition, the “Sol @ pH 7.4” value in the data set “Solubility at pH 7.4” is on record as below 1 ug/mL. This molecule gave a PAMPA Permeability in the data set “PAMPA permeability” below 1 ×10⁻⁶ cm/s.

Values taken from patent US11753408B2, “Compounds and method for blocking transmission of malarial parasite” (The United States of America, as represented by the …, priority 2016, dated 2023).
